Measurements published in patent US20180353518A1, “OPHTHALMIC SOLUTIONS” (Santen Pharmaceutical Co., LTD., priority 2000, published 2018).

Experiment: Solubility Test with polysorbate 80 in water
Assay type: physicochemical
Conditions: room temperature and 40° C.
Method: In order to formulate a drug which is hardly soluble in water in an ophthalmic solution, it is necessary to devise to dissolve the drug in water. Since the nonionic surfactant acts as the solubilizing agent, the following solubility tests were performed in order to make sure of its required amount.
Test method: The present compound having a concentration exceeding solubility and polysorbate 80 were added to 10 ml of water, the mixtures were stirred at 5° C., room temperature and 40° C. for 24 hours respectively and then centrifuged at 20,000 rpm, and concentrations of the present compound contained in the supernatants were measured by the HPLC method. […] The “%” in the FIGURE is % by weight.

CC(C)OC(=O)CCC/C=C\C[C@@H]1[C@@H](/C=C/C(F)(F)COc2ccccc2)[C@H](O)C[C@@H]1O [the present compound, 16-Phenoxy-15-deoxy-15,15-difluoro-17,18,19,20-tetranorprostaglandin F2α isopropyl ester]
Water-solubility of the present compound versus temperature (5° C., with polysorbate 80 (FIG. 1)): at low temperatures is higher than that at high temperatures
solubility of the present compound versus amount of polysorbate 80 (water, stirred 24 hours at 5° C., supernatant by HPLC (FIG. 1)): increases depending on amounts of polysorbate 80
